According to patent US4081533A, “Method of reducing mammalian fertility and drugs therefor” (Regents of the University of California, priority 1976, dated 1978):
Entries after “also recorded” stand apart in the source; their conditions may differ. Where a name gives a salt, the structure may show the parent alone. Read-outs that look alike come from different tables or passages of the source. Positions of bridges follow the written chain, without caps; N, C: chain ends. Residues, ends and D or L forms follow the SMILES beside them.

Key:
preovulatory surge of LH = experiment: Pre-ovulatory LH surge in proestrus rats (hourly blood samples, radioimmunoassay); type: in vivo, rat; details: for LH surge and ovulation inhibitory effect (in words): administered prior to ovulation, rats
Procedure: (§1) These subjects were administered various dosages of the peptides of the invention as well as control materials, i.e., saline solution alone, and the naturally occuring peptides, vasopressin and oxytocin, that are related to the cyclic nonapeptide, 8-arginine vasotocin. Both vasopressin and oxytocin are well documented in the literature. Vasopressin is very closely related to 8-arginine vastocin, and has the cyclic nonapeptide structure: [drawing 2] wherein the 3rd amino acid moiety is phenylalanine rather than isoleucine that occurs in the 8-arginine vasotocin. In all other respects the vasopressin peptide chain is identical to 8-arginine vasotocin. Vasopressin is found in the posterior lobe of the pituitary gland.
(§2) More specifically, in normal cycling female rats there is a dramatic surge in the level of luteinizing hormone (LH) in the blood on the afternoon of proestrus. This surge of LH can be detected by monitoring periodic blood samples. These samples are secured by inserting a cannula into the right atrium of the heart. 50 microliters of blood are withdrawn each hour for some 6 to 7 samples. The levels of LH therein is determined using radioimmunossay techniques. Under normal circumstances, ovulation occurs about 12 hours later. The oviducts are then removed and the ova are recovered therefrom by inserting a hypodermic into the tubal ostium and flushing with phosphate-buffered saline. Freed ova are collected in a micropipette and counted. In the tests, the normal cycling rats were administered both control saline, and various dosages of 8-arginine vasotocin, prolyl-arginyl-glycinamide, prolyl-lysyl-glycinamide, vasopressin and oxytocin.
(§3) In every instance, the peptide dosage was administered in saline via heart cannula at one hour intervals over a 4 hour period.

ovulation = experiment: Ovulation in proestrus rats (ova flushed from oviducts and counted); type: in vivo, rat
Procedure: as §1, §2, §3

[1] = system: Pre-Ovulatory Surge of Prolactin; experiment: Pre-ovulatory surge of prolactin in rats; type: in vivo, rat; details: for Inhibitory effect on prolactin surge (in words): summary of Table II
Procedure: 8-arginine vasotocin, vasopressin, and oxytocin were administered at various dosage levels and rates to a number of rats. Saline solution was utilized as a control.

[2] = rat, in vivo
Description: The level of nonapeptide or tripeptide in the body fluids necessary to inhibit the LH surge and subsequent ovulation will vary from species to species and from individual to individual. In this regard, however, the nonapeptide does appear to have at least 50-100 times the activity, on a weight basis, of the tripeptide. Therefore, effective dosage levels of the tripeptides are necessarily higher than the nonapeptides, by as much as two or three orders of magnitude. On the other hand, the tripeptide, being a much simpler molecular, is more easily metabolized, and the higher dosage requirements are easily tolerated and produce no side effects. […] A technique similar to that disclosed herein for the synthesis of the tripeptide may be utilized; although it will be recognized that the production of a nine membered peptide will be considerably more costly and time consuming that the production of the tripeptide. But such synthesis techniques are available to secure the 8-arginine vasotocin utilized in the present invention.

[3] = reason given for unsuitability in the method; cited from earlier work
[4] = dihydrochloride form, dosage 1 μg, same conditions as Table I
[5] = proestrus rats, dosage 0.1 μg in saline via heart cannula at one hour intervals over a 4 hour period, acetate salt
[6] = proestrus rats, dosage 1.0 μg in saline via heart cannula at one hour intervals over a 4 hour period, acetate salt
[7] = dosage 1μg/120 min, total dose 2 μg
[8] = dosage 1μ/30 min, total dose 7 μg
[9] = proestrus rats, dosage 5.0 μg in saline via heart cannula at one hour intervals over a 4 hour period, acetate salt
[10] = proestrus rats, dosage 0.6 mg in saline via heart cannula at one hour intervals over a 4 hour period, acetate salt

Structure (SMILES)	LH surge and ovulation inhibitory effect (in words) (preovulatory surge of LH)	Presence of LH Surges (%) (preovulatory surge of LH; [5])	Presence of LH Surges (%) (preovulatory surge of LH; [6])	Presence of Ova (%) (ovulation; [5])	Presence of Ova (%) (ovulation; [6])	Presence of Prolactin Surge (%) [1, 7] [%]	Presence of Prolactin Surge (%) [1, 8] [%]	Inhibitory effect on prolactin surge (in words) [1]	Presence of LH Surges (%) (preovulatory surge of LH; [10])	Presence of Ova (%) (ovulation; [10])	also measured
CC[C@H](C)[C@@H]1NC(=O)[C@H](Cc2ccc(O)cc2)NC(=O)[C@@H](N)CSSC[C@@H](C(=O)N2CCC[C@H]2C(=O)N[C@@H](CCCNC(=N)N)C(=O)NCC(N)=O)NC(=O)[C@H](CC(N)=O)NC(=O)[C@H](CCC(N)=O)NC1=O [8-arginine vasotocin-dihydrochloride] (H-CYIQNCPRG-NH2; disulfide 1-6)											Presence of LH Surges (%) (preovulatory surge of LH; [4]): 0%; Presence of Ova (%) (ovulation; [4]): 20%
CC[C@H](C)[C@@H]1NC(=O)[C@H](Cc2ccc(O)cc2)NC(=O)[C@@H](N)CSSC[C@@H](C(=O)N2CCC[C@H]2C(=O)N[C@@H](CCCNC(=N)N)C(=O)NCC(N)=O)NC(=O)[C@H](CC(N)=O)NC(=O)[C@H](CCC(N)=O)NC1=O [8-arginine-Vasotocin, 8-arginine vasotocin] (H-CYIQNCPRG-NH2; disulfide 1-6)	effectively blocked	34	5	45	22	0	4	high inhibitory effect			Effect on basal levels of luteinizing hormone in the blood (preovulatory surge of LH; basal LH, not the surge): does not appear to suppress the basal levels; Activity of the nonapeptide relative to the tripeptide (preovulatory surge of LH; on a weight basis): 50-100 times; Presence of Prolactin Surge (%) ([1]; dosage 1μg/240 min, total dose 5 μg): 80%; Presence of Prolactin Surge (%) ([1]; dosage 1μ/60 min, total dose 4 μg): 14%
CC[C@H](C)[C@@H]1NC(=O)[C@H](Cc2ccc(O)cc2)NC(=O)[C@@H](N)CSSC[C@@H](C(=O)N2CCC[C@H]2C(=O)N[C@@H](CC(C)C)C(=O)NCC(N)=O)NC(=O)[C@H](CC(N)=O)NC(=O)[C@H](CCC(N)=O)NC1=O [Oxytocin, reference compound]	essentially inactive		100		100	84	60	the lowest effect			Presence of LH Surges (%) (preovulatory surge of LH; [9]): 94%; Presence of Ova (%) (ovulation; [9]): 94%
N=C(N)NCCC[C@H](NC(=O)[C@@H]1CCCN1)C(=O)NCC(N)=O [Prolyl-arginyl-glycinamide, prolyl-arginyl-glycinamide] (H-Pro-Arg-Gly-NH2)	exhibits a similar luteinizing hormone suppressing effect that also inhibits ovulation; also recorded: high inhibition of the LH surge and ovulation								25	42	Side effects [2]: no noticable side effects
NCCCC[C@H](NC(=O)[C@@H]1CCCN1)C(=O)NCC(N)=O [Prolyl-lysyl-glycinamide, prolyl-lysyl-glycinamide] (H-Pro-Lys-Gly-NH2)									15	30	LH surge and ovulation inhibitory effect (in words) (preovulatory surge of LH; listed as Prolyl-Lysyl-Glycinamide): exhibits luteinizing hormone suppressing and anovulatory properties; LH surge and ovulation inhibitory effect (in words) (preovulatory surge of LH; listed as prolyl-lysyl-glycinamide): high inhibition of the LH surge and ovulation
NC(=O)CC[C@@H]1NC(=O)[C@H](Cc2ccccc2)NC(=O)[C@H](Cc2ccc(O)cc2)NC(=O)[C@@H](N)CSSC[C@@H](C(=O)N2CCC[C@H]2C(=O)N[C@@H](CCCN=C(N)N)C(=O)NCC(N)=O)NC(=O)[C@H](CC(N)=O)NC1=O [Vasopressin, reference compound]	considerable activity	94	37	94	62	57	17	a lesser effect			Side effects [3]: severe vasocontrictive side effects
